Measured values from patent US20110183978A1, “Phenylpyri(mi)dinylazoles” (Bayer CropScience AG, priority 2009, published 2011).
Read-outs that look alike come from different tables or passages of the source.

What was measured:
Alternaria solani = test: Example M: in vivo test on Alternaria solani (leaf blotch disease/tomato/protective); conditions: 168 h, tomato, protective, 500 ppm active substance, assessed 7 days after inoculation, read-out: % Wirkungsgrad (activity level)
Experimental: Solvent: 49 parts by weight N,N-dimethylformamide Emulsifier: 1 part by weight alkylaryl polyglycol ethers For the preparation of a suitable active substance preparation, 1 part by weight of active substance is mixed with the stated quantities of solvent and emulsifier and the concentrate is diluted to the desired concentration with water. For the testing for protective activity, young tomato plants are sprayed with the active substance preparation at the stated application dosage. […] 7 days after the inoculation, the assessment takes place.

physchem = conditions: LogPA
Sphaerotheca fuliginea = test: Example L: in vivo test on Sphaerotheca fuliginea (powdery mildew on cucumber/protective); conditions: Podosphaera fuliginea, 168 h, cucumber, protective, assessment 7 days after inoculation, read-out: % Wirkungsgrad
Experimental: Solvent: 49 parts by weight N,N-dimethylformamide Emulsifier: 1 part by weight alkylaryl polyglycol ethers For the preparation of a suitable active substance preparation, 1 part by weight of active substance is mixed with the stated quantities of solvent and emulsifier and the concentrate is diluted to the desired concentration with water. For the testing for protective activity, young cucumber plants are sprayed with the active substance preparation at the stated application dosage. One day after the treatment, the plants are inoculated with a spore suspension of Sphaerotheca fuliginea. Next, the plants are placed in a greenhouse at 70% relative atmospheric humidity and a temperature of 23° C. 7 days after the inoculation, the assessment takes place.

Fusarium graminearum = test: microbe, parasite or virus in culture; assay type: cell-based
[1] = 72 h, read-out: % Inhibition des Pilzwachstums bei 50 μM
[2] = 168 h, read-out: % Inhibition der DON/AcDON produktion bei 50 μM

Compound | pest or weed control at 500 ppm (Alternaria solani) [%] | chromatographic logP (physchem) | pest or weed control at 500 ppm (Sphaerotheca fuliginea) [%] | inhibition at 50 µM (Fusarium graminearum; [1]) [%] | inhibition at 50 µM (Fusarium graminearum; [2]) [%]
CCOCCn1cc(-c2ccnc(NC(=O)C(C)C)c2)c(-c2ccc(F)cc2)n1 [Compound 328] | 95 | 2.32 | 100 | 101 | 100
CC(C)Cn1cc(-c2ccncc2-c2cccc(F)c2)c(-c2ccc(F)cc2)n1 [Compound 229] | 95 | 3.13 | 94 | 0 | 97
CCC(=O)Nc1cc(-c2cn(OC(C)C)nc2-c2ccc(F)cc2)ccn1 [Compound 226] | 95 | 2.58 | 95 | 85 | 100
CC(C)n1cc(-c2ccnc(NC(=O)N(C)C)c2)c(-c2ccc(F)cc2)n1 [Compound 233] | 90 | 1.6 | 95 | 100 | 100
CC(C)C(=O)Nc1cc(-c2cn(CCC#N)nc2-c2ccc(F)cc2)ccn1 [Compound 309] | 100 | 1.91 | 100 | – | –
CC(C)n1cc(-c2ccnc(N)n2)c(-c2ccc(F)cc2)n1 [Compound 366] | 80 | 1.54 | 94 | – | –
CCC(=O)Nc1cc(-c2cn(C)nc2-c2ccc(F)cc2)ccn1 [Compound 296] | 100 | 1.56 | 84 | – | –
CCn1cc(-c2ccnc(NC(=O)C(N)=O)c2)c(-c2ccc(F)cc2)n1 [Compound 351] | 95 | 1.99 | 80 | – | –
CCOCCn1cc(-c2ccnc(NC(=O)CC3CC3)c2)c(-c2ccc(F)cc2)n1 [Compound 329] | 95 | 2.48 | 94 | 104 | 100
CC(C)Cn1cc(-c2ccnc(NC(C)(C)C)n2)c(-c2ccc(F)cc2)n1 [Compound 284] | 100 | 2.94 | 91 | – | –
Cn1nc(-c2ccc(F)cc2O)c(-c2ccnc(NC(=O)C3CC3)c2)c1OC(F)F [Compound 258] | 95 | 2.22 | 80 | 79 | 98
CC(CC#N)n1cc(-c2ccnc(NC(=O)CC3CC3)c2)c(-c2ccc(F)cc2)n1 (centres unmarked) [Compound 315] | 95 | 2.28 | 95 | – | –
COCC(C)Nc1nccc(-c2cn(CC(C)C)nc2-c2ccc(F)cc2)n1 (centres unmarked) [Compound 285] | 95 | 2.39 | 89 | – | –
CCn1cc(-c2ccnc(NC(=O)[C@@H]3C[C@H]3c3ccccc3)c2)c(-c2ccc(F)cc2)n1 [Compound 337] | 95 | 3.06 | 88 | – | –
CC(C)CC(=O)Nc1cc(-c2cn(C)nc2-c2ccc(F)cc2)ccn1 [Compound 347] | 95 | 2.12 | 95 | – | –
CCC(=O)Nc1cc(-c2cn(CCSC)nc2-c2ccc(F)cc2)ccn1 [Compound 300] | 80 | 2.12 | 90 | – | –
O=C(CC1CC1)Nc1cc(-c2cn(Cc3ccccc3F)nc2-c2ccc(F)cc2)ccn1 [Compound 253] | 94 | 3.17 | 92 | – | –

Compound | pest or weed control at 500 ppm (Alternaria solani) [%] | chromatographic logP (physchem) | pest or weed control at 500 ppm (Sphaerotheca fuliginea) [%] | inhibition at 50 µM (Fusarium graminearum; [1]) [%] | inhibition at 50 µM (Fusarium graminearum; [2]) [%]
COC(=O)C(C(C)C)n1cc(-c2ccnc(NC(=O)C(C)C)c2)c(-c2ccc(F)cc2)n1 (centres unmarked) [Compound 277] | 100 | 3.05 | 94 | – | –
CC(C)C(=O)Cn1cc(-c2ccncc2)c(-c2ccc(F)cc2)n1 [Compound 178] | 94 | 1.37 | 75 | – | –
CCC(=O)Nc1cc(-c2cn(C(C)C3CC3)nc2-c2ccc(F)cc2)ccn1 (centres unmarked) [Compound 301] | 95 | 2.54 | 95 | – | –
COCC(=O)Nc1cc(-c2cn(C)nc2-c2ccc(F)cc2)ccn1 [Compound 297] | 100 | 1.89 | 90 | – | –
COCC(=O)Nc1cc(-c2cn(CC3CC3(Cl)Cl)nc2-c2ccc(F)cc2)ccn1 (centres unmarked) [Compound 245] | 94 | 3.22 | 88 | 95 | 99
CSCCn1cc(-c2ccnc(NC(=O)C(C)C)c2)c(-c2ccc(F)cc2)n1 [Compound 306] | 95 | 2.44 | 94 | – | –
CCC(=O)Nc1cc(-c2cn(C(C)CC#N)nc2-c2ccc(F)cc2)ccn1 (centres unmarked) [Compound 312] | 100 | 1.87 | 100 | – | –
CC(C)C(=O)Nc1cc(-c2cn(C(C)C3CC3)nc2-c2ccc(F)cc2)ccn1 (centres unmarked) [Compound 307] | 100 | 2.9 | 100 | – | –
CCOC(=O)Nc1cc(-c2cn(CC(C)C)nc2-c2ccc(F)cc2)ccn1 [Compound 267] | 95 | 3.11 | 98 | 59 | 97
CC(C)OC(=O)Nc1cc(-c2cn(C(C)C)nc2-c2ccc(F)cc2)ccn1 [Compound 181] | 94 | 2.99 | 85 | – | –
CCOCCn1cc(-c2ccnc(NC(=O)CC)c2)c(-c2ccc(F)cc2)n1 [Compound 326] | 95 | 2.01 | 94 | 107 | 100
CCC(=O)Nc1cc(-c2cn(CC3OCCO3)nc2-c2ccc(F)cc2)ccn1 [Compound 278] | 95 | 1.59 | 89 | – | –
Cn1cc(-c2ccnc(NC(=O)CC3CC3)c2)c(-c2ccc(F)cc2)n1 [Compound 299] | 100 | 1.98 | 84 | – | –
CC(C)C(=O)Nc1cc(-c2cn(C(C)c3ccccc3F)nc2-c2ccc(F)cc2)ccn1 (centres unmarked) [Compound 232] | 95 | 3.41 | 93 | 0 | 80
CCC(C)C(=O)Nc1cc(-c2cn(C)nc2-c2ccc(F)cc2)ccn1 (centres unmarked) [Compound 348] | 95 | 2.14 | 95 | – | –
CCCn1cc(-c2ccnc(NC(=O)C(C)C)c2)c(-c2ccc(F)cc2)n1 [Compound 294] | 100 | 2.49 | 98 | – | –
CCC(C)C(=O)Nc1cc(-c2cn(CC)nc2-c2ccc(F)cc2)ccn1 (centres unmarked) [Compound 340] | 95 | 2.42 | 95 | – | –
